ChEMBL document CHEMBL1155555, “Matemone, a new bioactive bromine-containing oxindole alkaloid from the indian ocean sponge Iotrochota purpurea” (J Nat Prod, 2000)
≈ marks a conversion by molar mass, not a printed value. Calls of active or inactive are those of the source. The rule behind the calls is not given here.

Legend:
Staphylococcus aureus [1] = assay: Antibacterial activity against Staphylococcus aureus at 200 ug/disk after 18 hrs by paper disk agar diffusion assay; format: functional; details: read-out: IZ
MIA PaCa-2 = assay: Cytotoxicity against human PaCa2; format: functional, cell-based
Staphylococcus aureus [2] = assay: Antibacterial activity against Staphylococcus aureus at 50 ug/disk after 18 hrs by paper disk agar diffusion assay; format: functional; details: read-out: IZ
Candida albicans = assay: Antifungal activity against Candida albicans at 200 ug/disk after 18 hrs by paper disk agar diffusion assay; format: functional, organism-based
Paracentrotus lividus = assay: Inhibition of sea urchin egg division
[3] = Cytotoxicity against human NSCLC-N6 L16; format: functional
Staphylococcus aureus [4] = assay: Antibacterial activity against Staphylococcus aureus at 100 ug/disk after 18 hrs by paper disk agar diffusion assay; format: functional; details: read-out: IZ
DU-145 = assay: Cytotoxicity against human DU145; format: functional, cell-based
DNA = assay: Binding affinity to calf thymus DNA by DNA intercalating assay relative to ethidium bromide; format: nucleic-acid assay; details: Bos taurus

- IC50 (Paracentrotus lividus): 35 mg/L (≈ 129 µM)
- Activity (DNA): 40%
Compound: COC1(CO)Nc2cc(Br)ccc2C1=O (centres undefined) [MATEMONE]
- zone of inhibition at 200 µg/disc (Staphylococcus aureus [1]): 11 mm
- IC50 (MIA PaCa-2): 24 mg/L (≈ 88.2 µM)
- zone of inhibition at 50 µg/disc (Staphylococcus aureus [2]): 7 mm
- Activity (Candida albicans): inactive
- IC50 [3]: 30 mg/L (≈ 110 µM)
- zone of inhibition at 100 µg/disc (Staphylococcus aureus [4]): 9 mm
- IC50 (DU-145): 27 mg/L (≈ 99.2 µM)
